Experiment: recombinant barcode read abundance after kanamycin selection (control-corrected) (log10(CPM+1)); higher = more efficient recombination; sequences stand for … in AGTGCAGAGAAAATCGGCCAGTTTTCTCTGCCTGCAGTCCGCATGCCGT…AGATTTATGCAGCGGACTGCCTTTCTCCCAAAGTGATAAACCGGACAGTATCATGGACCGGTTTTCCCGGTAATCCGTATTTGCAAGGTTGGTTTCACT; site = the 11-nt target
In short: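 A vector carrying a T7-inducible recombinase and the last 73 bp of the bridge RNA received, by Gibson cloning, oligos encoding a promoter, target, barcode and the first 104 bridge RNA bases under J23119. The pooled constructs entered E. coli together with a donor plasmid by electroporation. Selection used chloramphenicol/ampicillin/kanamycin with 0.1 mM IPTG, with chloramphenicol/ampicillin LB agar as the control, each in two replicates. Recombination efficiency is the averaged, control-corrected counts-per-million of barcodes at recombinant junctions, reported as log10(CPM+1).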
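Further: IS621 recombinase and bridge RNA in Escherichia coli cells.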

“GCTTCGGCTTGGGTTCTAACCTGTTGCCT (site GCATCGGCTAG)” and “GCTTCGGCTTGGGTTCTAACCTGTTGCCT (site GCCTCGGCTAG)” are within 0.2 log units of each other in “recombinant barcode read abundance (log10)” value: 0.193 for the first, 0.0138 for the second.

Compared with “GCTTCGGCTTGGGTTCTAACCTGTTGCCT (site GCGTCGGCTAG)”, “GCTTCGGCTTGGGTTCTAACCTGTTGCCT (site GCTTCGGCTAG)” is higher in “recombinant barcode read abundance (log10)” value: 0.0514 for the first, 0.282 for the second.

Going from “GCTTGAACTTGGGTTCTAACCTGTTGCTT (site GCTTGAACTAA)” to “GCTTGAACTTGGGTTCTAACCTGTTGCTT (site GGTTGAACTAT)”, the “recombinant barcode read abundance (log10)” value falls from 0.292 to 0.0501.

“GCTTGGCCTTGGGTTCTAACCTGTTGCCT (site CCTTGGTCTAG)” and “GCTTGGCCTTGGGTTCTAACCTGTTGCCT (site GCTTGGCCTAG)” are within 0.2 log units of each other in “recombinant barcode read abundance (log10)” value: 0.211 for the first, 0.188 for the second.

Compared with “GCTTGGTCTTGGGTTCTAACCTGTTGCGA (site CTAGCTCCTAA)”, “GCTTGGTCTTGGGTTCTAACCTGTTGCGA (site GCTTGGTCTTC)” is higher in “recombinant barcode read abundance (log10)” value: 0.173 for the first, 1.57 for the second.

Compared with “GGAAAGACTTGGGTTCTAACCTGTTGCCT (site GGAAAGACTAG)”, “GGAAAGACTTGGGTTCTAACCTGTTGCCT (site GGCAAGACTAG)” is lower in “recombinant barcode read abundance (log10)” value: 1.58 for the first, 0.18 for the second.

First: GGAAAGACTTGGGTTCTAACCTGTTGCCT (site GGGAAGACTAG)
Second: GGAAAGACTTGGGTTCTAACCTGTTGCCT (site GGTAAGACTAG)
The “recombinant barcode read abundance (log10)” value of the first is lower: 0.297 for the first, 0.505 for the second.

Compared with “GGAAGCTCTTGGGTTCTAACCTGTTGCTT (site GGAAGCTCTAA)”, “GGAAGCTCTTGGGTTCTAACCTGTTGCTT (site GTACGCTCTAA)” is lower in “recombinant barcode read abundance (log10)” value: 0.591 for the first, 0.0116 for the second.

First: GGAAGGTCTTGGGTTCTAACCTGTTGCAT (site ACGTCCACTTG)
Second: GGAAGGTCTTGGGTTCTAACCTGTTGCAT (site GGAAGGTCTAT)
The “recombinant barcode read abundance (log10)” value of the first is lower: 0.0537 for the first, 1.98 for the second.

Compared with “GGAATGACTTGGGTTCTAACCTGTTGCCT (site GAAATGACTAG)”, “GGAATGACTTGGGTTCTAACCTGTTGCCT (site GCAATGACTAG)” is higher in “recombinant barcode read abundance (log10)” value: 0.344 for the first, 0.726 for the second.

Going from “GGAATGACTTGGGTTCTAACCTGTTGCCT (site GGAATGACTAG)” to “GGAATGACTTGGGTTCTAACCTGTTGCCT (site GTAATGACTAG)”, the “recombinant barcode read abundance (log10)” value falls from 2.02 to 0.545.

Going from “GGACCATCTTGGGTTCTAACCTGTTGCCT (site GGACAATCTAG)” to “GGACCATCTTGGGTTCTAACCTGTTGCCT (site GGACCATCTAG)”, the “recombinant barcode read abundance (log10)” value rises from 0.29 to 0.915.

“GGACCATCTTGGGTTCTAACCTGTTGCCT (site GGACGATCTAG)” and “GGACCATCTTGGGTTCTAACCTGTTGCCT (site GGACTATCTAG)” are within 0.2 log units of each other in “recombinant barcode read abundance (log10)” value: 0.146 for the first, 0.276 for the second.

First: GGACCCTCTTGGGTTCTAACCTGTTGCCT (site AGACCCTCTAG)
Second: GGACCCTCTTGGGTTCTAACCTGTTGCCT (site CGACCCTCTAG)
The “recombinant barcode read abundance (log10)” value of the first is higher: 1.09 for the first, 0.406 for the second.

First: GGACCCTCTTGGGTTCTAACCTGTTGCCT (site GGACCCTCTAG)
Second: GGACCCTCTTGGGTTCTAACCTGTTGCCT (site TGACCCTCTAG)
The “recombinant barcode read abundance (log10)” value of the first is higher: 1.96 for the first, 0.353 for the second.

Going from “GGACCTCCTTGGGTTCTAACCTGTTGCAT (site GGACCTCCTAA)” to “GGACCTCCTTGGGTTCTAACCTGTTGCAT (site GGACCTCCTAC)”, the “recombinant barcode read abundance (log10)” value rises from 0.342 to 0.805.

Going from “GGACCTCCTTGGGTTCTAACCTGTTGCAT (site GGACCTCCTAG)” to “GGACCTCCTTGGGTTCTAACCTGTTGCAT (site GGACCTCCTAT)”, the “recombinant barcode read abundance (log10)” value rises from 0.0883 to 1.96.

First: GGACCTCCTTGGGTTCTAACCTGTTGCGT (site GGACCTCCTAA)
Second: GGACCTCCTTGGGTTCTAACCTGTTGCGT (site GGACCTCCTAC)
The “recombinant barcode read abundance (log10)” value of the first is lower: 0.503 for the first, 3.05 for the second.

Going from “GGACCTCCTTGGGTTCTAACCTGTTGCGT (site GGACCTCCTAG)” to “GGACCTCCTTGGGTTCTAACCTGTTGCGT (site GGACCTCCTAT)”, the “recombinant barcode read abundance (log10)” value rises from 0.272 to 1.71.

Going from “GGACGATCTTGGGTTCTAACCTGTTGCCT (site GGACAATCTAG)” to “GGACGATCTTGGGTTCTAACCTGTTGCCT (site GGACCATCTAG)”, the “recombinant barcode read abundance (log10)” value falls from 0.471 to 0.0164.

First: GGACGATCTTGGGTTCTAACCTGTTGCCT (site GGACGATCTAG)
Second: GGACGATCTTGGGTTCTAACCTGTTGCCT (site GGACTATCTAG)
The “recombinant barcode read abundance (log10)” value of the first is higher: 1.54 for the first, 0.357 for the second.

Going from “GGACGCGCTTGGGTTCTAACCTGTTGCGG (site GGACGCGCTCC)” to “GGACGCGCTTGGGTTCTAACCTGTTGCGG (site GGGCCCGCTCC)”, the “recombinant barcode read abundance (log10)” value falls from 2.43 to 0.075.

Compared with “GGACGGCCTTGGGTTCTAACCTGTTGCCT (site GGACGACCTAG)”, “GGACGGCCTTGGGTTCTAACCTGTTGCCT (site GGACGCCCTAG)” is lower in “recombinant barcode read abundance (log10)” value: 0.523 for the first, 0.133 for the second.

Going from “GGACGGCCTTGGGTTCTAACCTGTTGCCT (site GGACGGCCTAG)” to “GGACGGCCTTGGGTTCTAACCTGTTGCCT (site GGACGTCCTAG)”, the “recombinant barcode read abundance (log10)” value falls from 1.35 to 0.

Compared with “GGAGAAGCTTGGGTTCTAACCTGTTGCCT (site GGAGAAGCTAG)”, “GGAGAAGCTTGGGTTCTAACCTGTTGCCT (site GGAGACGCTAG)” is lower in “recombinant barcode read abundance (log10)” value: 2.11 for the first, 0.569 for the second.

Going from “GGAGAAGCTTGGGTTCTAACCTGTTGCCT (site GGAGAGGCTAG)” to “GGAGAAGCTTGGGTTCTAACCTGTTGCCT (site GGAGATGCTAG)”, the “recombinant barcode read abundance (log10)” value falls from 1.15 to 0.158.

First: GGAGCTTCTTGGGTTCTAACCTGTTGCCT (site GGAGCTTCTAG)
Second: GGAGCTTCTTGGGTTCTAACCTGTTGCCT (site GTACCTTCTAG)
The “recombinant barcode read abundance (log10)” value of the first is higher: 1.33 for the first, 0.256 for the second.

Going from “GGAGGTCCTTGGGTTCTAACCTGTTGCCG (site ACTCAGACTGT)” to “GGAGGTCCTTGGGTTCTAACCTGTTGCCG (site GGAGGTCCTCG)”, the “recombinant barcode read abundance (log10)” value rises from 0.161 to 1.79.

First: GGAGTCCCTTGGGTTCTAACCTGTTGCGA (site GGAGTCCCTTC)
Second: GGAGTCCCTTGGGTTCTAACCTGTTGCGA (site GGATTCCCTTG)
The “recombinant barcode read abundance (log10)” value of the first is higher: 2.39 for the first, 0.0458 for the second.

First: GGATACACTTGGGTTCTAACCTGTTGCCA (site GGATACACTTG)
Second: GGATACACTTGGGTTCTAACCTGTTGCCA (site GGATCCACTTG)
The “recombinant barcode read abundance (log10)” value of the first is higher: 1.35 for the first, 0.041 for the second.

First: GGATACACTTGGGTTCTAACCTGTTGCCA (site GGATGCACTTG)
Second: GGATACACTTGGGTTCTAACCTGTTGCCA (site GGATTCACTTG)
The “recombinant barcode read abundance (log10)” value of the first is lower: 0.0123 for the first, 0.274 for the second.

Compared with “GGATGGACTTGGGTTCTAACCTGTTGCTT (site GGATAGCCTAA)”, “GGATGGACTTGGGTTCTAACCTGTTGCTT (site GGATGGACTAA)” is higher in “recombinant barcode read abundance (log10)” value: 0.0315 for the first, 1.96 for the second.

Going from “GGCAAACCTTGGGTTCTAACCTGTTGCGG (site CATGGGACTAT)” to “GGCAAACCTTGGGTTCTAACCTGTTGCGG (site GGCAAACCTCC)”, the “recombinant barcode read abundance (log10)” value rises from 0.0629 to 2.09.
